Test results reported in PMC8876135, “The Catestatin-Derived Peptides Are New Actors to Fight the Development of Oral Candidosis” (International Journal of Molecular Sciences, 2022).
≈ marks a conversion by molar mass, not a printed value. Non-standard residues stand in square brackets, D forms with d. Residues, ends and D or L forms follow the SMILES beside them. *: point of attachment. Palmitoyl = CCCCCCCCCCCCCCCC(=O)*

How the values were obtained:
[1] = tested on: Candida albicans “S” (ATCC 10231); type: cell-based; conditions: ATCC 10231, 24 h, pH 5.6
Description: (§1) Strains of Candida albicans, Candida tropicalis and Candida glabrata, frequently found in cases of oral candidosis, were tested for L-bCtl and D-bCtl antimicrobial activity. The sensitive strain of C. albicans (ATCC 10231^TM) was provided by ATCC (Manassas, VA, USA). The resistant strain of C. albicans, the sensitive and resistant strains of C. tropicalis as well as the sensitive and resistant strains of C. glabrata were kindly provided by Dr Valérie Letscher-Bru (Laboratory of Parasitolology and Medical Mycology, Strasbourg, France).
(§2) Each Candida strain was first plated on agar plates and cultured for 24 h at 37 °C. After incubation, one colony per isolate was transferred into 5 mL of Sabouraud medium pH 5.6 (Sigma-Aldrich, Le Pont-de-Claix, France) supplemented with tetracycline (10 μg/mL) and cefotaxime (10 μg/mL) and incubated aerobically under agitation at 37 °C for 24 h. The resulting cultures were resuspended at an absorbance of 0.001 (OD600nm = 0.001) in Sabouraud medium. The OD600nm was evaluated with a spectrophotometer (BIO-RAD Smatspec^TM plus, Schiltigheim, France). In preliminary experiments, we tested RPMI-1640 culture and Sabouraud media. Similar data were obtained but the experiments were more reproducible with Sabouraud than with RPMI1640. Therefore, Sabouraud medium was used in the present study.
(§3) The yeasts (OD600nm = 0.001) were then plated on 96-well microplates and treated with different concentrations of the peptides of interest. After 24 h incubation at 37 °C under agitation, yeast growth was assessed by optical density (OD600nm) using a microplate spectrophotometer (Multiscan EX, Thermo Fisher Scientific, Waltham, MA, USA). All tests were performed in triplicate. The MIC (minimal inhibitory concentration), defined as the lowest concentration of drug able to inhibit 100% of the growth of a pathogen, was determined for the different peptides against all previously described Candida strains, using a modified Gompertz model.

Candida albicans “R” = type: cell-based; conditions: 24 h, pH 5.6
Description: as §1, §2, §3

Row | Compound | MIC C. albicans “S” [1] [µg/mL] | MIC C. albicans “R” (Candida albicans “R”) [µg/mL]
1 | CC(C)C[C@@H](NC(=O)[C@H](N)CCCNC(=N)N)C(=O)N[C@H](CO)C(=O)N[C@H](Cc1ccccc1)C(=O)N[C@H](CCCNC(=N)N)C(=O)N[C@H](C)C(=O)N[C@H](Cc1c[nH]c2ccccc12)C(=O)O [Peptide P6] (H-[dR][dL][dS][dF][dR][dA][dW]-OH; N-terminus and C-terminus assumed) | >100 | >100
2 | CSCC[C@H](NC(=O)[C@H](CO)NC(=O)[C@H](CO)NC(C)=O)C(=O)N[C@@H](CCCCN)C(=O)N[C@@H](CC(C)C)C(=O)N[C@@H](CO)C(=O)N[C@@H](Cc1ccccc1)C(=O)N[C@@H](CCCNC(=N)N)C(=O)N[C@@H](C)C(=O)N[C@@H](CCCNC(=N)N)C(=O)NCC(=O)N[C@@H](Cc1ccc(O)cc1)C(=O)NCC(=O)N[C@@H](Cc1ccccc1)C(=O)N[C@@H](CCCNC(=N)N)C(=O)O [Peptide P12] (Ac-SSMKLSFRARGYGFR-OH; C-terminus assumed) | >100 | >100
3 | CC(=O)N[C@@H](CC(C)C)C(=O)N[C@@H](CO)C(=O)N[C@@H](Cc1ccccc1)C(=O)N[C@@H](CCCNC(=N)N)C(=O)N[C@@H](C)C(=O)N[C@@H](CCCNC(=N)N)C(=O)O [Peptide P7] (Ac-LSFRAR-OH) | >100 | >100
4 | CCCCCCCCCCCCCCCC(=O)N[C@@H](CCCNC(=N)N)C(=O)N[C@@H](CO)C(=O)N[C@@H](CCSC)C(=O)N[C@@H](CCCNC(=N)N)C(=O)N[C@@H](CC(C)C)C(=O)N[C@@H](CO)C(=O)N[C@@H](Cc1ccccc1)C(=O)N[C@@H](CCCNC(=N)N)C(=O)O [Peptide P4] (Palmitoyl-RSMRLSFR-OH; C-terminus assumed) | >100 | >100
5 | CSCC[C@H](N)C(=O)N[C@@H](CCCCN)C(=O)N[C@@H](CC(C)C)C(=O)N[C@@H](CO)C(=O)N[C@@H](Cc1ccccc1)C(=O)N[C@@H](CCCNC(=N)N)C(=O)O [Peptide P18] (H-MKLSFR-OH) | >100 | >100
6 | CCCCCCCCCCCCCCCC(=O)N[C@@H](CCSC)C(=O)N[C@@H](CCCCN)C(=O)N[C@@H](CC(C)C)C(=O)N[C@@H](CO)C(=O)N[C@@H](Cc1ccccc1)C(=O)N[C@@H](CCCNC(=N)N)C(=O)O [Peptide P19] (Palmitoyl-MKLSFR-OH; C-terminus assumed) | >100 | >100
7 | CSCC[C@H](NC(=O)[C@H](CO)NC(=O)[C@H](CO)NC(C)=O)C(=O)N[C@@H](CCCCN)C(=O)N[C@@H](CC(C)C)C(=O)N[C@@H](CO)C(=O)N[C@@H](Cc1ccccc1)C(=O)N[C@@H](CCCNC(=N)N)C(=O)O [Peptide P15] (Ac-SSMKLSFR-OH) | >100 | >100
8 | CSCC[C@H](NC(=O)[C@H](CO)NC(=O)[C@@H](N)CCCNC(=N)N)C(=O)N[C@@H](CCCNC(=N)N)C(=O)N[C@@H](CC(C)C)C(=O)N[C@@H](CO)C(=O)N[C@@H](Cc1ccccc1)C(=O)N[C@@H](CCCNC(=N)N)C(=O)O [Peptide P2] (H-RSMRLSFR-OH) | 50 (≈ 47.5 µM) | 100 (≈ 95 µM)
9 | CC(C)C[C@H](N)C(=O)N[C@@H](CO)C(=O)N[C@@H](Cc1ccccc1)C(=O)N[C@@H](CCCNC(=N)N)C(=O)O [Peptide P8] (H-LSFR-OH) | >100 | >100
10 | CC(C)C[C@H](NC(=O)[C@@H](N)CCCNC(=N)N)C(=O)N[C@@H](CO)C(=O)N[C@@H](Cc1ccccc1)C(=O)N[C@@H](CCCNC(=N)N)C(=O)N[C@@H](C)C(=O)N[C@@H](Cc1c[nH]c2ccccc12)C(=O)O [Peptide P5] (H-RLSFRAW-OH) | >100 | >100
11 | CSCC[C@H](NC(=O)[C@H](CO)NC(=O)[C@@H](N)CO)C(=O)N[C@@H](CCCCN)C(=O)N[C@@H](CC(C)C)C(=O)N[C@@H](CO)C(=O)N[C@@H](Cc1ccccc1)C(=O)N[C@@H](CCCNC(=N)N)C(=O)O [Peptide P14] (H-SSMKLSFR-OH) | >100 | >100
12 | CCCCCCCCCCCCCCCC(=O)N[C@@H](CO)C(=O)N[C@@H](CO)C(=O)N[C@@H](CCSC)C(=O)N[C@@H](CCCCN)C(=O)N[C@@H](CC(C)C)C(=O)N[C@@H](CO)C(=O)N[C@@H](Cc1ccccc1)C(=O)N[C@@H](CCCNC(=N)N)C(=O)O [Peptide P16] (Palmitoyl-SSMKLSFR-OH; C-terminus assumed) | >100 | >100
13 | CCCCCCCCCCCCCCCC(=O)N[C@@H](CC(C)C)C(=O)N[C@@H](CO)C(=O)N[C@@H](Cc1ccccc1)C(=O)N[C@@H](CCCNC(=N)N)C(=O)O [Peptide P11] (Palmitoyl-LSFR-OH; C-terminus assumed) | >100 | >100
14 | CC(=O)N[C@@H](CCCCN)C(=O)N[C@@H](CC(C)C)C(=O)N[C@@H](CO)C(=O)N[C@@H](Cc1ccccc1)C(=O)N[C@@H](CCCNC(=N)N)C(=O)N[C@@H](C)C(=O)O [Peptide P17] (Ac-KLSFRA-OH) | >100 | >100
15 | CCCCCCCCCCCCCCCC(=O)N[C@@H](CO)C(=O)N[C@@H](CO)C(=O)N[C@@H](CCSC)C(=O)N[C@@H](CCCCN)C(=O)N[C@@H](CC(C)C)C(=O)N[C@@H](CO)C(=O)N[C@@H](Cc1ccccc1)C(=O)N[C@@H](CCCNC(=N)N)C(=O)N[C@@H](C)C(=O)N[C@@H](CCCNC(=N)N)C(=O)NCC(=O)N[C@@H](Cc1ccc(O)cc1)C(=O)NCC(=O)N[C@@H](Cc1ccccc1)C(=O)N[C@@H](CCCNC(=N)N)C(=O)O [Peptide P13] (Palmitoyl-SSMKLSFRARGYGFR-OH; C-terminus assumed) | >100 | >100
16 | CSCC[C@H](NC(=O)[C@H](CO)NC(=O)[C@H](CCCNC(=N)N)NC(C)=O)C(=O)N[C@@H](CCCNC(=N)N)C(=O)N[C@@H](CC(C)C)C(=O)N[C@@H](CO)C(=O)N[C@@H](Cc1ccccc1)C(=O)N[C@@H](CCCNC(=N)N)C(=O)O [Peptide P3] (Ac-RSMRLSFR-OH) | >100 | >100
17 | CSCC[C@H](NC(=O)[C@H](CO)NC(=O)[C@@H](N)CO)C(=O)N[C@@H](CCCCN)C(=O)N[C@@H](CC(C)C)C(=O)N[C@@H](CO)C(=O)N[C@@H](Cc1ccccc1)C(=O)N[C@@H](CCCNC(=N)N)C(=O)N[C@@H](C)C(=O)N[C@@H](CCCNC(=N)N)C(=O)N[C@@H](C)C(=O)N[C@@H](Cc1ccc(O)cc1)C(=O)NCC(=O)N[C@@H](Cc1ccccc1)C(=O)N[C@@H](CCCNC(=N)N)C(=O)O [hCtl] (H-SSMKLSFRARAYGFR-OH) | 50 (≈ 28.1 µM) | 50 (≈ 28.1 µM)
18 | CC(=O)N[C@@H](CC(C)C)C(=O)N[C@@H](CO)C(=O)N[C@@H](Cc1ccccc1)C(=O)N[C@@H](CCCNC(=N)N)C(=O)O [Peptide P10] (Ac-LSFR-OH) | >100 | >100
19 | CC(C)C[C@@H](N)C(=O)N[C@H](CO)C(=O)N[C@H](Cc1ccccc1)C(=O)N[C@H](CCCNC(=N)N)C(=O)O [Peptide P9] (H-[dL][dS][dF][dR]-OH; N-terminus and C-terminus assumed) | >100 | >100
